Where a chain is given by its changes, count along the chain named.
Tests used:
[1] = target: T1, Muscarinic acetylcholine receptor M5 (Homo sapiens) (UniProt P08912); test: Positive allosteric modulation of human muscarinic M5 receptor assessed as fold shift of acetylcholine-induced response at 30 uM
T1 sequence (whole entry): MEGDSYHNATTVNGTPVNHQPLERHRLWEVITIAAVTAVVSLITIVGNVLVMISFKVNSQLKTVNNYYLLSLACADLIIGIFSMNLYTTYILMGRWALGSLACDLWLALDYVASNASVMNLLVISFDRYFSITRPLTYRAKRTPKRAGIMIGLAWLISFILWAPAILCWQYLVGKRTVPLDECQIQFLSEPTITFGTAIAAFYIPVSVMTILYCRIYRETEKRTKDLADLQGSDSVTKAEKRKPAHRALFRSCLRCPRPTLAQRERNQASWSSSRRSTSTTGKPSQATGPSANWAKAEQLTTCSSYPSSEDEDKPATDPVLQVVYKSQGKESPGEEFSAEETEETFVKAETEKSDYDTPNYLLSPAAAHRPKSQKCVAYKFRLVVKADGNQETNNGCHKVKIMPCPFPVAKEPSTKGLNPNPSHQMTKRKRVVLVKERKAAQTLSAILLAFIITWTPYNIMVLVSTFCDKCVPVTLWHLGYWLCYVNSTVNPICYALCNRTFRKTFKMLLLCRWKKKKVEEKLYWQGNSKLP

[2] = target: T2, Muscarinic acetylcholine receptor M5 (Rattus norvegicus) (UniProt P08911); test: Positive allosteric modulation of rat muscarinic M5 receptor relative to acetylcholine
T2 sequence (whole entry): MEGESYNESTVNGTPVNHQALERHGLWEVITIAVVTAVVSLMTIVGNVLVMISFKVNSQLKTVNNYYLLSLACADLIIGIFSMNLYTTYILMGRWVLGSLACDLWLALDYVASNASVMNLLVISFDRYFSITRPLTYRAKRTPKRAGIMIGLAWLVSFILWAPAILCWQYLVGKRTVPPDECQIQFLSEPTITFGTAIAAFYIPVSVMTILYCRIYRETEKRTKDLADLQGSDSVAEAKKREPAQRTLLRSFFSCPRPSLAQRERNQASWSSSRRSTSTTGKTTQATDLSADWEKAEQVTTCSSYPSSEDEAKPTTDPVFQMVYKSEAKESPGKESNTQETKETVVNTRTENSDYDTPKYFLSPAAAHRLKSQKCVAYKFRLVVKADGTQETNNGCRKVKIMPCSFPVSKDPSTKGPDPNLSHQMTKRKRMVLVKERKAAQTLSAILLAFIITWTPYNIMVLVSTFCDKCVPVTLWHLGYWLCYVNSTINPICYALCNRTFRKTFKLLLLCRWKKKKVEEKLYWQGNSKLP

[3] = target: T3, Muscarinic acetylcholine receptor M4 (Homo sapiens, UniProt P08173); test: Positive allosteric modulation of human muscarinic M4 receptor
T3 sequence (P08173 whole entry): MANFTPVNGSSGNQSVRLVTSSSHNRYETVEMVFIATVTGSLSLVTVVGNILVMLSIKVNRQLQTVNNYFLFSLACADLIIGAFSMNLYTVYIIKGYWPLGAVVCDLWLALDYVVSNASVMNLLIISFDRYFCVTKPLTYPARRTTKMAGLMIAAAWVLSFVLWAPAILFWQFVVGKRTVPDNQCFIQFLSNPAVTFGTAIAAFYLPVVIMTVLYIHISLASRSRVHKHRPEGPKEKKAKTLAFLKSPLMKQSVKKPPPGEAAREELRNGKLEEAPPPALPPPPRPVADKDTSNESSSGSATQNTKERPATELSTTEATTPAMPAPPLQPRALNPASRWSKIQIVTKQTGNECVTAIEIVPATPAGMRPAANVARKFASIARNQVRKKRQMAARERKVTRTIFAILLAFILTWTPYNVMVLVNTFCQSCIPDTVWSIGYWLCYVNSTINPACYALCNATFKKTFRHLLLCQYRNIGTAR

[4] = target: Muscarinic acetylcholine receptor M3 (Homo sapiens, UniProt P20309); test: Positive allosteric modulation of human muscarinic M3 receptor
[5] = target: T4, Muscarinic acetylcholine receptor M1 (Homo sapiens, UniProt P11229); test: Positive allosteric modulation of human muscarinic M1 receptor
T4 sequence (P11229 whole entry): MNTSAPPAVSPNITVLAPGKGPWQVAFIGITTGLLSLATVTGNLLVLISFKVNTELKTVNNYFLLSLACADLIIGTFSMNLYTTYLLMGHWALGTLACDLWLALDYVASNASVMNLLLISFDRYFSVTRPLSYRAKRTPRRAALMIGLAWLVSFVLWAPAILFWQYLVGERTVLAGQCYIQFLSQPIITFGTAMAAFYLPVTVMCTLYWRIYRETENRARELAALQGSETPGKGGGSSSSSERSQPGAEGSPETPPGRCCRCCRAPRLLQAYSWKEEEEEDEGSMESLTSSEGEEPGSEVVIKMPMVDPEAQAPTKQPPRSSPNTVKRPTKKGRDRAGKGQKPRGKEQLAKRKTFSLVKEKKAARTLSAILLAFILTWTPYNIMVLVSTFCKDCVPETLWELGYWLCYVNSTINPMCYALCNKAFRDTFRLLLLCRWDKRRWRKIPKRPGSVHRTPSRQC

[6] = target: T5, Muscarinic acetylcholine receptor M2 (Homo sapiens, UniProt P08172); test: Positive allosteric modulation of human muscarinic M2 receptor
T5 sequence (P08172 whole entry): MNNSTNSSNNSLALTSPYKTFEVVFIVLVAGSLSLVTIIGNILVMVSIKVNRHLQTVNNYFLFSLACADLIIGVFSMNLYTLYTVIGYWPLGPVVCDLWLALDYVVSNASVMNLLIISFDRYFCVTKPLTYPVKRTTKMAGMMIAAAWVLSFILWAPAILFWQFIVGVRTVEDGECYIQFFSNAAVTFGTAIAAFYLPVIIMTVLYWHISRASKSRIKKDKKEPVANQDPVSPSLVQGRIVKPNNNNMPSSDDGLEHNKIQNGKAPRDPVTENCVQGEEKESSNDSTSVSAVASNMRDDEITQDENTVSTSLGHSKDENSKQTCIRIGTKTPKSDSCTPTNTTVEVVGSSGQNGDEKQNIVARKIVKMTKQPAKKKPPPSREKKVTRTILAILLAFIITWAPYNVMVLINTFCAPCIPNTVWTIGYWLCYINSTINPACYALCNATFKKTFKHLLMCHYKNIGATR

[7] = target: T6, Muscarinic acetylcholine receptor M5 (Homo sapiens, UniProt P08912); test: Positive allosteric modulation of human muscarinic M5 receptor
T6 sequence (P08912 whole entry): T1 sequence (whole entry)

[8] = target: T1, Muscarinic acetylcholine receptor M5 (Homo sapiens); test: Positive allosteric modulation of human muscarinic M5 receptor relative to acetylcholine
[9] = target: Muscarinic acetylcholine receptor M3 (Rattus norvegicus, UniProt P08483); test: Positive allosteric modulation of rat muscarinic M3 receptor
[10] = target: T7, Muscarinic acetylcholine receptor M2 (Rattus norvegicus, UniProt P10980); test: Positive allosteric modulation of rat muscarinic M2 receptor
T7 sequence (P10980 whole entry): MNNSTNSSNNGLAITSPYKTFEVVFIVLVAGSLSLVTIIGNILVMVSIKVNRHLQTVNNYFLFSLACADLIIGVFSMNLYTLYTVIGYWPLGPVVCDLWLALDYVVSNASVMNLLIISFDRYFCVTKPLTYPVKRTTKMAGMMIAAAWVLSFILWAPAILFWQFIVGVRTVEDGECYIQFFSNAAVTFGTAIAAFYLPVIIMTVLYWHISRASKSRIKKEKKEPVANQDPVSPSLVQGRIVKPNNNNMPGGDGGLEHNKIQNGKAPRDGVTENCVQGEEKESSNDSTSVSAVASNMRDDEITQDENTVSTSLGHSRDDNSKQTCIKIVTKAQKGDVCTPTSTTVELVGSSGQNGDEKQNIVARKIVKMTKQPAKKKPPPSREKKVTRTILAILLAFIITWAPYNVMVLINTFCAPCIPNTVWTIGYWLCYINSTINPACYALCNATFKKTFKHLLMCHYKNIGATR

[11] = target: T8, Muscarinic acetylcholine receptor M1 (Rattus norvegicus, UniProt P08482); test: Positive allosteric modulation of rat muscarinic M1 receptor
T8 sequence (P08482 whole entry): T4 sequence (P11229 whole entry) with A5V, T254S, P309S, R320K, A337G, I413V

[12] = target: T9, Muscarinic acetylcholine receptor M4 (Rattus norvegicus, UniProt P08485); test: Positive allosteric modulation of rat muscarinic M4 receptor
T9 sequence (P08485 whole entry): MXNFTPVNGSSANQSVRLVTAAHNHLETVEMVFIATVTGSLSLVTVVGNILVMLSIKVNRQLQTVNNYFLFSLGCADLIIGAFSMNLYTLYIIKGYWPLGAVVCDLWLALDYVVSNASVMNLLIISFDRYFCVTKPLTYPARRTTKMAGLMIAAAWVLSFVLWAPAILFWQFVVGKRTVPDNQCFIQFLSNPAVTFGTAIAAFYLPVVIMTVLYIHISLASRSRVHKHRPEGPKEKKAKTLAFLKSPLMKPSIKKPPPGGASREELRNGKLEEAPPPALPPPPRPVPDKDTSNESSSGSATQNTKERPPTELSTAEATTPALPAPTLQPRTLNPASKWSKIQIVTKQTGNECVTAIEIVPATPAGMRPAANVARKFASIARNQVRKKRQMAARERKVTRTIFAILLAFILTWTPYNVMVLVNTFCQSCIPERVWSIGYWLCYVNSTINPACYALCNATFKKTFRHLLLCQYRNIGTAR

[13] = target: T1, Muscarinic acetylcholine receptor M5 (Homo sapiens); test: Positive allosteric modulation of human muscarinic M5 receptor at 3 uM relative to acetylcholine

Sequence of Muscarinic acetylcholine receptor M3 (Homo sapiens, UniProt P20309) (P20309 whole entry): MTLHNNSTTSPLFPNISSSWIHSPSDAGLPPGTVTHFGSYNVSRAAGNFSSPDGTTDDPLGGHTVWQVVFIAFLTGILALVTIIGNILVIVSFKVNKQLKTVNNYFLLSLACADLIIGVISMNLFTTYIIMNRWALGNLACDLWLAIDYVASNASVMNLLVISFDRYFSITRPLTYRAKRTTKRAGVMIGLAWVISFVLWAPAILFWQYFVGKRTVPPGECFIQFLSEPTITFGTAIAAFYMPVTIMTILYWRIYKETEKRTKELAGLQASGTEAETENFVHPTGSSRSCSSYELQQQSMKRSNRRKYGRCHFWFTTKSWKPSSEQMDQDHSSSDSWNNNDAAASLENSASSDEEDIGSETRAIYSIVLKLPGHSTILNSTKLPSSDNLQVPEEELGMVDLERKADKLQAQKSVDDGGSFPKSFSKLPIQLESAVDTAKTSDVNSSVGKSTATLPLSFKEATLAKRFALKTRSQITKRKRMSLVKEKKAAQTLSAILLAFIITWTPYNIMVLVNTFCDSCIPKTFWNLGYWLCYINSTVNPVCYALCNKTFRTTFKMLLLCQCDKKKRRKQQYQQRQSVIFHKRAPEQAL
Sequence of Muscarinic acetylcholine receptor M3 (Rattus norvegicus, UniProt P08483) (P08483 whole entry): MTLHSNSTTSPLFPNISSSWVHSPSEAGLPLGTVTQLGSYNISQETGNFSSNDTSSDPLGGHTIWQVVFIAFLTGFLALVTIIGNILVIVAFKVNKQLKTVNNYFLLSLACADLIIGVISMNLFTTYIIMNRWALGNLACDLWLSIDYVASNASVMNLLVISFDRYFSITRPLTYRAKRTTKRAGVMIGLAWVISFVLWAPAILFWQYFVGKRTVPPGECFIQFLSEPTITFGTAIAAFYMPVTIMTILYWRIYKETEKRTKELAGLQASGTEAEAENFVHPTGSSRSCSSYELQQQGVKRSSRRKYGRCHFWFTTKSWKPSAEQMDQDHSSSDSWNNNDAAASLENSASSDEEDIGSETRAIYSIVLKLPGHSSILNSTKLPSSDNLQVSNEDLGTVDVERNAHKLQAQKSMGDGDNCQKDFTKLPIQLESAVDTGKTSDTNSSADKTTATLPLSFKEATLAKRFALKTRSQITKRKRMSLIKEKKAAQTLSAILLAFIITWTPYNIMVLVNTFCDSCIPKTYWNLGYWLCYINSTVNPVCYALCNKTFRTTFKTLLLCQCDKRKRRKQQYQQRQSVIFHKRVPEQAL

COc1ccc(CN2C(=O)C(=O)c3cc(OC(F)(F)F)ccc32)cc1
fold change (FC) [1]: 14
fold change (FC) [2]: 20
EC50 [3]: > 30 µM
EC50 [4]: > 30 µM
EC50 [5]: > 30 µM
EC50 [6]: > 30 µM

O=C1C(=O)N(Cc2ccc(Oc3cccc(F)n3)cc2)c2ccc(OC(F)(F)F)cc21
fold change (FC) [1]: 6
EC50 [3]: > 30 µM
EC50 [4]: > 30 µM
EC50 [5]: > 30 µM
EC50 [6]: > 30 µM

O=C1C(=O)N(Cc2ccc(Oc3ccccc3)cc2)c2ccc(OC(F)(F)F)cc21
fold change (FC) [1]: 5
EC50 [3]: > 30 µM
EC50 [4]: > 30 µM
EC50 [5]: > 30 µM
EC50 [6]: > 30 µM

Cc1cccc(OCCN2C(=O)C(=O)c3cc(OC(F)(F)F)ccc32)c1
EC50 [7]: 0.53 µM
Emax [8]: 91%

Cn1cc(-c2ccc(CN3C(=O)C(=O)c4ccccc43)c(F)c2)cn1
EC50 [3]: > 30 µM
EC50 [4]: > 30 µM
Emax [8]: 45%
EC50 [6]: > 30 µM

O=C1C(=O)N(CCOc2ccc(Cl)cc2)c2ccc(OC(F)(F)F)cc21
EC50 [7]: 0.45 µM
Emax [8]: 92%

O=C1C(=O)N(CCOc2ccccc2)c2ccc(OC(F)(F)F)cc21
EC50 [9]: > 30 µM
EC50 [10]: > 30 µM
fold change (FC) [1]: 20
fold change (FC) [2]: 20
EC50 [3]: > 30 µM
EC50 [4]: > 30 µM
EC50 [11]: > 30 µM
EC50 [7]: 0.41 µM
Emax [8]: 91%
EC50 [12]: > 30 µM
EC50 [5]: > 30 µM
EC50 [6]: > 30 µM

COc1ccc(CN2C(=O)C(O)(c3ccc(F)nc3)c3cc(OC(F)(F)F)ccc32)cc1 (stereo not given)
EC50 [7]: 2.2 µM
Emax [8]: 74%

Cc1cccc2c1N(CCOc1ccccc1)C(=O)C2=O
Emax [13]: 31%

COc1ccc(CN2C(=O)C(O)(C[N+](=O)[O-])c3cc(OC(F)(F)F)ccc32)cc1 (stereo not given)
EC50 [7]: 1.4 µM
Emax [8]: 75%

COc1ccc(OCCN2C(=O)C(=O)c3cc(OC(F)(F)F)ccc32)cc1
EC50 [7]: 0.59 µM
Emax [8]: 89%

O=C1C(=O)N(CCOc2ccc(Oc3ccccc3)cc2)c2ccc(OC(F)(F)F)cc21
EC50 [7]: 1.05 µM
Emax [8]: 93%

From ChEMBL document CHEMBL2380197, “Discovery of ML326: The first sub-micromolar, selective M5 PAM” (Bioorg Med Chem Lett, 2013)
